Key:
[1] = tested on: Human platelet aggregation caused by ADP; assay: Inhibition of ADP-induced platelet aggregation (Mimic-human PRP); type: cell-based; details: 20 μM ADP, human platelet concentrate diluted with PPP, absorption at 595 nm
Outline: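 Ki came from non-linear sigmoidal fits of inhibition, measured as the 3-min rise in absorbance at 595 nm after 20 μM ADP, relative to 0/20 μM ADP controls. Platelets (3–4×10^8/mL in PPP-diluted human PRP) were exposed to 0.01–30 μM compound for 20 min at room temperature beforehand.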

Human P2Y12 receptor = biological target: T1, Human P2Y12 receptor (Homo sapiens, UniProt Q9H244); assay: Human P2Y12 receptor cell membrane binding assay with [3H] 2-Mes-ADP; details: 1 nM [3H] 2-Mes-ADP, membranes of HEK cells expressing P2Y12 receptor; read-out: Binding activity (IC50)
T1 construct: expressed in transfected cells; host or cells: HEK cells
T1 sequence (Q9H244 whole entry): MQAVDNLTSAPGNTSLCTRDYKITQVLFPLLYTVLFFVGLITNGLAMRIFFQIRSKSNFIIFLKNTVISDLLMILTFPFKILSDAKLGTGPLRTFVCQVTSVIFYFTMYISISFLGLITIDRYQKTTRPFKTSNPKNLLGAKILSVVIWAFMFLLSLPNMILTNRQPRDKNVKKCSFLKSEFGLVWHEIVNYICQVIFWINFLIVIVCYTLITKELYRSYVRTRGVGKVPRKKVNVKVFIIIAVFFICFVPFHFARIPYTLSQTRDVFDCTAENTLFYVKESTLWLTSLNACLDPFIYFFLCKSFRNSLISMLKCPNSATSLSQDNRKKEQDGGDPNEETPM
Outline: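 Competition binding used 1 nM [3H]2-MeS-ADP on P2Y12-expressing HEK cell membranes for 1 h at room temperature, followed by filtration and scintillation counting.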

| Structure (SMILES) | Ki [1] [nM] | IC50 (Human P2Y12 receptor) [nM] |
| --- | --- | --- |
| CCCc1cc2c(N3CCn4c(nnc4C(F)(F)F)C3)nc(N3CCC(C(=O)NS(=O)(=O)Cc4ccccc4)CC3)nc2s1 [Example 1-127, C-Phenyl-N-{1-[6-propyl-4-(3-trifluoromethyl-5,6-dihydro-8H-[1,2,4]triazolo[4,3-a]pyrazin-7-yl)-thieno[2,3-d]pyrimidin-2-yl]-piperidine-4-carbonyl}-methanesulfonamide] | 900 | 100 |
| CCCc1cc2c(N3CCn4c(nnc4C(F)(F)F)C3)nc(N3CCC(=NO)C3)nc2s1 [Example 1-19, 1-[6-Propyl-4-(3-trifluoromethyl-5,6-dihydro-8H-[1,2,4]triazolo[4,3-a]pyrazin-7-yl)-thieno[2,3-d]pyrimidin-2-yl]-pyrrolidin-3-one oxime] | 56 | 55 |
| CCCc1cc2c(N3CCn4c(nnc4C(F)(F)F)C3)nc(N3CC[C@@H](C(=O)O)C3)nc2s1 [Example 1-61, (R)-1-[6-Propyl-4-(3-trifluoromethyl-5,6-dihydro-8H-[1,2,4]triazolo[4,3-a]pyrazin-7-yl)-thieno[2,3-d]pyrimidin-2-yl]-pyrrolidine-3-carboxylic acid] | 7300 | 11 |
| CCc1cc2c(N3CCn4c(nnc4C(F)(F)C(F)(F)F)C3)nc(OCC(O)CO)nc2s1 (stereo not shown) [Example 6-3, 3-[6-Ethyl-4-(3-pentafluoroethyl-5,6-dihydro-8H-[1,2,4]triazolo[4,3-a]pyrazin-7-yl)-thieno[2,3-d]pyrimidin-2-yloxy]-propane-1,2-diol] | 395 | 620 |
| CCCc1cc2c(N3CCn4c(nnc4C(F)(F)F)C3)nc(-c3nc(CCOC)no3)nc2s1 [Example 4-29, 7-{2-[3-(2-Methoxy-ethyl)-[1,2,4]oxadiazol-5-yl]-6-propyl-thieno[2,3-d]pyrimidin-4-yl}-3-trifluoromethyl-5,6,7,8-tetrahydro-[1,2,4]triazolo[4,3-a]pyrazine] | 480 | 330 |
| CCCc1cc2c(N3CCn4c(nnc4C(F)(F)F)C3)nc(CC(N)=S)nc2s1 [Example 4-56, 2-[6-Propyl-4-(3-trifluoromethyl-5,6-dihydro-8H-[1,2,4]triazolo[4,3-a]pyrazin-7-yl)-thieno[2,3-d]pyrimidin-2-yl]-thioacetamide] | 6.4 | 170 |
| CCCc1cc2c(N3CCn4c(nnc4C(F)(F)F)C3)nc(C(=O)NCc3ccccc3)nc2s1 [Example 4-17, 6-Propyl-4-(3-trifluoromethyl-5,6-dihydro-8H-[1,2,4]triazolo[4,3-a]pyrazin-7-yl)thieno[2,3-d]pyrimidine-2-carboxylic acid benzylamide] | 1600 | 210 |
| CCCc1cc2c(N3CCn4c(nnc4C(F)(F)F)C3)nc(N3CCC(N)CC3)nc2s1 [Example 1-69, 1-[6-Propyl-4-(3-trifluoromethyl-5,6-dihydro-8H-[1,2,4]triazolo[4,3-a]pyrazin-7-yl)-thieno[2,3-d]pyrimidin-2-yl]-piperidin-4-ylamine] | 300 | 82 |
| CCCc1cc2c(N3CCn4c(nnc4C(F)(F)F)C3)nc(-c3nc(CO)cs3)nc2s1 [Example 4-50, {2-[6-Propyl-4-(3-trifluoromethyl-5,6-dihydro-8H-[1,2,4]triazolo[4,3-a]pyrazin-7-yl)thieno[2,3-d]pyrimidin-2-yl]thiazol-4-yl}methanol] | 34 | 57 |
| CCCc1cc2c(N3CCn4c(nnc4C(F)(F)F)C3)nc(N3CCC(N(C)C)C3)nc2s1 (stereo not shown) [Example 1-97, Dimethyl-{1-[6-propyl-4-(3-trifluoromethyl-5,6-dihydro-8H-[1,2,4]triazolo[4,3-a]pyrazin-7-yl)-thieno[2,3-d]pyrimidin-2-yl]-pyrrolidin-3-yl}-amine] | 13 | 140 |
| CCCc1nc2c(N3CCn4c(nnc4C(F)(F)F)C3)nc(N3CCC[C@H](C(=O)OCC)C3)nc2s1 [Example 5-6, (S)-1-[2-Propyl-7-(3-trifluoromethyl-5,6-dihydro-8H-[1,2,4]triazolo[4,3-a]pyrazin-7-yl)-thiazolo[5,4-d]pyrimidin-5-yl]-piperidine-3-carboxylic acid ethyl ester] | > 4000 | 630 |
| CCCc1cc2c(N3CCn4c(nnc4C(F)(F)F)C3)nc(NC3CNC3)nc2s1 [Example 1-83, Azetidin-3-yl-[6-propyl-4-(3-trifluoromethyl-5,6-dihydro-8H-[1,2,4]triazolo[4,3-a]pyrazin-7-yl)-thieno[2,3-d]pyrimidin-2-yl]-amine] | 7 | 320 |
| CCCc1cc2c(N3CCn4c(nnc4C(F)(F)F)C3)nc(N3CCC(=O)C3)nc2s1 [Example 1-18, 1-[6-Propyl-4-(3-trifluoromethyl-5,6-dihydro-8H-[1,2,4]triazolo[4,3-a]pyrazin-7-yl)-thieno[2,3-d]pyrimidin-2-yl]-pyrrolidin-3-one] | 34 | 54 |
| CCCc1cc2c(N3CCn4c(nnc4C(F)(F)F)C3)nc(-c3nc(CC(=O)O)cs3)nc2s1 [Example 4-52, {2-[6-Propyl-4-(3-trifluoromethyl-5,6-dihydro-8H-[1,2,4]triazolo[4,3-a]pyrazin-7-yl)thieno[2,3-d]pyrimidin-2-yl]thiazol-4-yl}acetic acid] | 38 | 14 |
| CCCc1cc2c(N3CCn4c(nnc4C(F)(F)F)C3)nc(Nc3ncccn3)nc2s1 [Example 1-37, [6-Propyl-4-(3-trifluoromethyl-5,6-dihydro-8H-[1,2,4]triazolo[4,3-a]pyrazin-7-yl)-thieno[2,3-d]pyrimidin-2-yl]-pyrimidin-2-yl-amine] | 850 | 550 |
| CCCc1cc2c(N3CCn4c(nnc4C(F)(F)F)C3)nc(OCCN)nc2s1 [Example 3-58, 2-[6-Propyl-4-(3-trifluoromethyl-5,6-dihydro-8H-[1,2,4]triazolo[4,3-a]pyrazin-7-yl)-thieno[2,3-d]pyrimidin-2-yloxy]-ethylamine] | 21 | 400 |
| CCCc1cc2c(N3CCn4c(nnc4C(F)(F)F)C3)nc(COC(=O)c3ccccc3)nc2s1 [Example 4-22, Benzoic Acid 6-propyl-4-(3-trifluoromethyl-5,6-dihydro-8H-[1,2,4]triazolo[4,3-a]pyrazin-7-yl)thieno[2,3-d]pyrimidin-2-ylmethyl ester] | 1600 | 850 |
| CCCc1cc2c(N3CCn4c(nnc4C(F)(F)F)C3)nc(N3CC[C@@H](N)C3)nc2s1 [Example 1-13, (R)-1-[6-Propyl-4-(3-trifluoromethyl-5,6-dihydro-8H-[1,2,4]triazolo[4,3-a]pyrazin-7-yl)-thieno[2,3-d]pyrimidin-2-yl]-pyrrolidin-3-ylamine] | 90 | 83 |
| CCCc1cc2c(N3CCn4c(nnc4C(F)(F)F)C3)nc(Oc3ccc(C(=O)O)cc3)nc2s1 [Example 3-35, 4-[6-Propyl-4-(3-trifluoromethyl-5,6-dihydro-8H-[1,2,4]triazolo[4,3-a]pyrazin-7-yl)-thieno[2,3-d]pyrimidin-2-yloxy]-benzoic acid] | 1400 | 99 |
| CCCc1cc2c(N3CCn4c(nnc4C(F)(F)F)C3)nc(Oc3ccc(CC(=O)OC)cc3)nc2s1 [Example 3-39, {4-[6-Propyl-4-(3-trifluoromethyl-5,6-dihydro-8H-[1,2,4]triazolo[4,3-a]pyrazin-7-yl)-thieno[2,3-d]pyrimidin-2-yloxy]-phenyl}-acetic acid methyl ester] | 2400 | 300 |
| CCCc1cc2c(N3CCn4c(nnc4C(F)(F)F)C3)nc(N3CCNCC3)nc2s1 [Example 1-4, 7-(2-piperazin-1-yl-6-propyl-thieno[2,3-d]pyrimidin-4-yl)-3-trifluoromethyl-5,6,7,8-tetrahydro-[1,2,4]triazolo[4,3-a]pyrazine] | 300 | 64 |
| CCCc1cc2c(N3CCn4c(nnc4C(F)(F)F)C3)nc(Oc3ccc(CCC(=O)OC)cc3)nc2s1 [Example 3-41, 3-{4-[6-Propyl-4-(3-trifluoromethyl-5,6-dihydro-8H-[1,2,4]triazolo[4,3-a]pyrazin-7-yl)-thieno[2,3-d]pyrimidin-2-yloxy]-phenyl}-propionic acid methyl ester] | 1500 | 390 |
| CCCc1cc2c(N3CCn4c(nnc4C(F)(F)F)C3)nc(N(C)C)nc2s1 [Example 1-64, Dimethyl-[6-propyl-4-(3-trifluoromethyl-5,6-dihydro-8H-[1,2,4]triazolo[4,3-a]pyrazin-7-yl)-thieno[2,3-d]pyrimidin-2-yl]-amine] | > 4000 | 170 |
| CCCc1cc2c(N3CCn4c(nnc4C(F)(F)F)C3)nc(N3CCN(c4ccc(O)cc4)CC3)nc2s1 [Example 1-38, 4-{4-[6-Propyl-4-(3-trifluoromethyl-5,6-dihydro-8H-[1,2,4]triazolo[4,3-a]pyrazin-7-yl)-thieno[2,3-d]pyrimidin-2-yl]-piperazin-1-yl}-phenol] | 180 | 100 |
| CCCc1cc2c(N3CCn4c(nnc4C(F)(F)F)C3)nc(N3CC[C@H](NC(=O)c4ccco4)C3)nc2s1 [Example 1-112, Furan-2-carboxylic Acid {(S)-1-[6-propyl-4-(3-trifluoromethyl-5,6-dihydro-8H-[1,2,4]triazolo[4,3-a]pyrazin-7-yl)-thieno[2,3-d]pyrimidin-2-yl]-pyrrolidin-3-yl}-amide] | 260 | 50 |
| CCCc1cc2c(N3CCn4c(nnc4C(F)(F)F)C3)nc(N3CCn4ccnc4C3)nc2s1 [Example 1-77, 7-[2-(5,6-Dihydro-8H-imidazo[1,2-a]pyrazin-7-yl)-6-propyl-thieno[2,3-d]pyrimidin-4-yl]-3-trifluoromethyl-5,6,7,8-tetrahydro-[1,2,4]triazolo[4,3-a]pyrazine] | 60 | 47 |

Reference: US20110166121A1 (LG LIFE SCIENCES LTD., priority 2008, published 2011)
